# Calls of active or inactive are those of the source. No cut-off for these calls is given here.
# Key:
# [1] = system: Salmonella typhimurium; experiment: Antibiofilm activity in Salmonella Typhimurium ATCC 14028 assessed as inhibition of biofilm formation at 25 degC after 24 hrs; format: functional, organism-based, Salmonella enterica subsp. enterica serovar Typhimurium; settings: Salmonella enterica, ATCC 14028, 24 h
# [2] = system: Salmonella typhimurium; experiment: Antimicrobial activity against Salmonella Typhimurium ATCC 14028 assessed as inhibition of planktonic growth at 40 uM at 25 degC after 24 hrs; format: functional, organism-based; settings: Salmonella enterica subsp. enterica serovar Typhimurium
# [3] = system: Salmonella typhimurium; experiment: Antimicrobial activity against Salmonella Typhimurium ATCC 14028 assessed as inhibition of planktonic growth at 20 uM at 25 degC after 24 hrs; format: functional, organism-based; settings: Salmonella enterica subsp. enterica serovar Typhimurium
# [4] = system: Pseudomonas aeruginosa; experiment: Antibiofilm activity in Pseudomonas aeruginosa assessed as inhibition of biofilm formation at 25 degC after 24 hrs; format: functional, organism-based
# [5] = system: Pseudomonas aeruginosa; experiment: Antimicrobial activity against Pseudomonas aeruginosa assessed as inhibition of planktonic growth at 40 uM at 25 degC after 24 hrs; format: functional, organism-based
# [6] = system: Pseudomonas aeruginosa; experiment: Antimicrobial activity against Pseudomonas aeruginosa assessed as inhibition of planktonic growth at 20 uM at 25 degC after 24 hrs; format: functional, organism-based
# [7] = system: Salmonella typhimurium; experiment: Antimicrobial activity against Salmonella Typhimurium ATCC 14028 assessed as inhibition of planktonic growth at 10 uM at 25 degC after 24 hrs; format: functional, organism-based; settings: Salmonella enterica subsp. enterica serovar Typhimurium
# [8] = system: Salmonella typhimurium; experiment: Antimicrobial activity against Salmonella Typhimurium ATCC 14028 assessed as inhibition of planktonic growth at 4 uM at 25 degC after 24 hrs; format: functional, organism-based; settings: Salmonella enterica subsp. enterica serovar Typhimurium
# [9] = system: Pseudomonas aeruginosa; experiment: Antimicrobial activity against Pseudomonas aeruginosa assessed as inhibition of planktonic growth at 10 uM at 25 degC after 24 hrs; format: functional, organism-based
# [10] = system: Pseudomonas aeruginosa; experiment: Antimicrobial activity against Pseudomonas aeruginosa assessed as inhibition of planktonic growth at 5 uM at 25 degC after 24 hrs; format: functional, organism-based
# [11] = system: Salmonella typhimurium; experiment: Antimicrobial activity against Salmonella Typhimurium ATCC 14028 assessed as inhibition of planktonic growth at 400 uM at 25 degC after 24 hrs; format: functional, organism-based; settings: Salmonella enterica subsp. enterica serovar Typhimurium
SMILES,IC50 [1],IC50 [4],inhibition [2],inhibition [3],inhibition [5],inhibition [6],inhibition [7],inhibition [8],inhibition [9],inhibition [10],inhibition [11]
CCCCCCCC[n+]1c(-c2ccc(SC)cc2)cn2cccnc21.[O-][Cl+3]([O-])([O-])[O-],20.7 µM,9.3 µM,Active,Active,Active,inactive,,,,,
CCCCCCCC[n+]1c(-c2ccc(OC)cc2)cn2cccnc21.[O-][Cl+3]([O-])([O-])[O-],34.8 µM,8.7 µM,Active,Active,inactive,inactive,,,inactive,,
CCCCCCCC[n+]1c(-c2ccc([N+](=O)[O-])cc2)cn2cccnc21.[O-][Cl+3]([O-])([O-])[O-],63.6 µM,18.7 µM,,,Active,inactive,,,inactive,,
CCCCCCCC[n+]1c(-c2ccc(-c3ccc(-c4ccccc4)cc3)cc2)cn2cccnc21.[O-][Cl+3]([O-])([O-])[O-],5 µM,,,,,,Active,inactive,,,
O=[N+]([O-])c1ccc(-c2cn3cccnc3[n+]2C2CCCCCCCCCCC2)cc1.[O-][Cl+3]([O-])([O-])[O-],9.8 µM,15.1 µM,,inactive,Active,Active,inactive,,inactive,,
CCCCCCCCn1c(-c2cccc3ccccc23)cnc1N,6.6 µM,17.6 µM,,,,Active,inactive,inactive,inactive,,
CCCCCCCCCCCn1c(-c2ccccc2)cnc1N,7.2 µM,16.3 µM,Active,,,inactive,Active,inactive,inactive,,
CCCCCCCn1c(-c2ccccc2)cnc1N,12.2 µM,6.8 µM,,,inactive,inactive,,,,inactive,
CCCCCCCCCCCCCn1c(-c2ccccc2)cnc1N,6 µM,27.3 µM,Active,,inactive,inactive,Active,inactive,,,
Nc1ncc(-c2ccc(-c3ccccc3)cc2)n1C1CCCCCCC1,22.9 µM,3.2 µM,,Active,inactive,inactive,,,inactive,inactive,
CCCCCCCCCCn1c(-c2ccccc2)cnc1N,6.1 µM,15 µM,,Active,,inactive,Active,inactive,inactive,,
Nc1ncc(-c2ccc(-c3ccccc3)cc2)n1C1CCCCCC1,12.5 µM,6.6 µM,Active,Active,,,Active,,,,
CC(C)n1c(-c2ccccc2)cnc1N,176 µM,4.5 µM,,,,,,,inactive,inactive,
CCCCn1c(-c2ccccc2)cnc1N,51.9 µM,2.1 µM,,,,,,,inactive,inactive,
CCCCCCCC[n+]1c(-c2ccc(-c3ccc([N+](=O)[O-])cc3)cc2)cn2cccnc21.[O-][Cl+3]([O-])([O-])[O-],1.5 µM,1 µM,,,Active,Active,Active,Active,Active,Active,
CCCCCCCC[n+]1c(-c2ccc(F)cc2)cn2cccnc21.[O-][Cl+3]([O-])([O-])[O-],35.7 µM,19.5 µM,inactive,inactive,Active,inactive,,,,,
Nc1nc(-c2ccccc2)c(-c2ccc(C(F)(F)F)cc2)[nH]1,29.2 µM,,inactive,,,,,inactive,,,Active
CCCCCCCC[n+]1c(-c2ccc(F)c(F)c2)cn2cccnc21.[O-][Cl+3]([O-])([O-])[O-],3.8 µM,12.7 µM,,,Active,Active,Active,inactive,Active,,
Nc1ncc(-c2ccc(Cl)cc2)n1C1CCCCCC1,15.7 µM,4 µM,,,,inactive,,,inactive,inactive,
Nc1ncc(-c2ccc(Cl)cc2)n1C1CCCCC1,33.2 µM,11.2 µM,,,inactive,inactive,,,,inactive,
CCCCCCCCn1c(-c2ccc(-c3ccccc3)cc2)cnc1N,3.3 µM,8.9 µM,Active,Active,,inactive,,inactive,inactive,,
Nc1ncc(-c2ccc(Cl)cc2)n1C1CCCCCCC1,12.9 µM,48.7 µM,Active,Active,,,inactive,,,,
CCCCCCCC[n+]1c(-c2cccc3ccccc23)cn2cccnc21.[O-][Cl+3]([O-])([O-])[O-],6 µM,6.8 µM,,,Active,Active,Active,inactive,Active,inactive,
CCCCCCCCCCCCn1c(-c2ccc(-c3ccccc3)cc2)cnc1N,167 µM,> 400 µM,,,inactive,,,,,inactive,
CCCCCCCCCCCCCn1c(-c2ccc(-c3ccccc3)cc2)cnc1N,> 800 µM,> 400 µM,,,inactive,,,,,inactive,
Nc1nc(-c2ccc(F)cc2)c(C(=O)Nc2ccccc2)[nH]1,182 µM,,inactive,,,,,inactive,,,Active

# Further lines, with some results ahead:
IC50 [1],IC50 [4],SMILES,inhibition [2],inhibition [3],inhibition [5],inhibition [6],inhibition [7],inhibition [8],inhibition [9],inhibition [10],inhibition [11]
4 µM,8 µM,CCCCCCCCCn1c(-c2ccc(Cl)cc2)cnc1N,,Active,,Active,Active,inactive,inactive,,
6 µM,8.4 µM,CCCCCCCCCn1c(-c2ccccc2)cnc1N,,Active,,Active,Active,inactive,inactive,inactive,
4.1 µM,44 µM,CCCCCCCCCCCn1c(-c2ccc(Cl)cc2)cnc1N,,Active,,,Active,inactive,,,
6.7 µM,2.8 µM,CCCCCCCCn1c(-c2ccc(SC)cc2)cnc1N,,,,Active,Active,inactive,Active,inactive,
4.9 µM,5.4 µM,CCCCCCn1c(-c2ccc(Cl)cc2)cnc1N,,,,,Active,Active,inactive,inactive,
29.1 µM,4.9 µM,CCCCCCCCn1c(-c2ccc(S(C)(=O)=O)cc2)cnc1N,Active,inactive,,inactive,,,,,
5.9 µM,4 µM,CCCCCCCCn1c(-c2ccc(Cl)cc2)cnc1N,,Active,,Active,Active,Active,Active,inactive,
10.8 µM,4.9 µM,CCCCCCCCn1c(-c2ccc(F)cc2)cnc1N,,Active,,Active,inactive,,Active,inactive,
3.7 µM,,CCCCCCCCn1c(-c2ccc(Cl)c(Cl)c2)cnc1N,,,,,Active,inactive,,,
6.2 µM,49.7 µM,CCCCCCCCCCCCn1c(-c2ccc(Cl)cc2)cnc1N,,inactive,,,inactive,inactive,,,
9.5 µM,2.6 µM,CCCCCCCn1c(-c2ccc(Cl)cc2)cnc1N,,,,,Active,inactive,Active,inactive,
4.1 µM,22.3 µM,CCCCCCCCCCn1c(-c2ccc(Cl)cc2)cnc1N,,,inactive,inactive,Active,inactive,,,
